In the assay the test system is human sweet taste receptor (hT1R2/hT1R3) coupled to Gα16gust25. The experiment in a line: FLIPR calcium mobilization assay, R2/R3 Gα16gust25 U2OS cells. In kind it is cell-based. To be noted: for ΔlogR FLIPR Mean: FLIPR-Gα16gust25, operational model, logR minus sucralose logR; for ΔΔlogR Mean: ΔlogR FLIPR-Gα16gust25 minus ΔlogR DMR. On the procedure:
The R2/R3 U2OS clone produced above was subsequently transfected with a linearized plasmid encoding Gα16gust25 in pcDNA3-neo. Transfected cells surviving triple selection in growth medium containing 0.5 μg/ml Puromycin (for hT1R2 expression), 100 μg/ml zeocin (for hT1R3 expression) and 500 μg/ml geneticin (Gα16gust25 expression) were diluted at various densities to obtain isolated colonies. Individual colonies were expanded, and the presence of functional human sweet receptor and G protein was evaluated in a FLIPR assay using sucralose as the agonist. Selected colonies were further evaluated with a larger panel of agonists. One clone, called L1F2, was used for this study.
Cells were gently mixed with the virus at a multiplicity of infection (MOI) of 5. Using a multidrop, 70 μl per well of the cell and virus mixture was dispensed in a 384-well clear bottom plate (Fisher). After 24 h of incubation in a humidified 37°C tissue culture incubator, trichostatin A was added to a final concentration of 0.3 μM and the cells were incubated for another 18–24 h at 34°C. On the day of the experiment, cells were loaded with 4 μM of the calcium indicator Fluo-4 AM (Invitrogen) in D-PBS for 1 h at room temperature. After washing the cells with D-PBS using a cell washer (BioTek) and a 30-minute rest time, the cell plate and the compound plate were transferred into the FLIPR-Tetra (Molecular Devices). Imaging and data analysis was performed as described ([Servant et al., 2010]). Alternatively, R2/R3 Gα16gust25 U2OS cells were re-suspended at a final density of 2.25 × 10^5 viable cells per mL and the mixture was dispensed in a 384-well clear bottom plate (Fisher) at 80 μl per well. Loading and the FLIPR assay were run as described above. When indicated, data for agonist dose-responses were normalized to data obtained with a maximum concentration of sucralose (1 mM) and then fitted and plotted using GraphPad Prism (San Diego, CA) and non-linear regression analysis.
To visualize and assess bias between the two different cell-based assays, we used bias plotting as described ([Drake et al., 2008]; [Peters and Scott, 2009]; [Gregory et al., 2010]; [Thomsen et al., 2012]; [Kenakin, 2015]; [Montero-Melendez et al., 2015]). To calculate relative potency bias between the two assays, we calculated a ratio of the negative logarithm of the EC50 (in M) of each agonist to that of sucralose (a sucralose dose-response was performed as a control on the same day) as described: pEC50 compound X–pEC50 sucralose. This value, that we termed pEC50Ratio (sucralose) or pEC50R (sucralose), was calculated with EC50 values obtained in the two assay systems. This transformation also allowed determination of an average and a standard error for the pEC50R (sucralose). The two sets of data (DMR and FLIPR data) were then analyzed with an un-paired t-test (α = 0.05). To calculate relative efficacy bias between the two assays, we captured the top asymptote value from each activity-normalized dose-response curve, as provided by the curve fit, calculated an average and a standard deviation (sd) for each agonist and then analyzed the data pairs with an un-paired t-test (α = 0.05). Assay bias was also estimated using an operational model ([Kenakin et al., 2012]; [Nagi and Pineyro, 2016]). The following steps were followed: 1) Using the PRISM software, we re-analyzed each ligand’s dose-response data obtained in each assay with non-linear regression and the users-defined equation “New Operational Model with TauKa ratios” and retrieved logR values from the fits.
For orientation: Calcium assays in cells follow changes in intracellular calcium, usually with a dye or a luminescent sensor.

Regarding `COC(=O)[C@H](Cc1ccccc1)NC(=O)[C@H](CC(=O)O)NCCC(C)(C)C` [Neotame], the “ΔlogR FLIPR Mean” value turned out to be 1.52 and the “ΔΔlogR Mean” value is 0.36.
The matching figures for `CC(C)Oc1ccc(NC(=S)NCc2ccc[nH]2)cc1` [S819]: 2.40 and −0.13.
The matching figures for `CC(C)Oc1ccc(NC(=S)NCc2cccs2)cc1` [S5227]: 1.73 and −0.12.

The values are drawn from paper PMC8893300, “A Dynamic Mass Redistribution Assay for the Human Sweet Taste Receptor Uncovers G-Protein Dependent Biased Ligands” (Frontiers in Pharmacology, 2022).
